Target: T1, RIO kinase 2 (RIOK2) (Homo sapiens, UniProt Q9BVS4)
T1 construct: residues 1–329
Experiment: co-crystal structure ([…] Å) and ITC
Format: binding

T1 sequence (Q9BVS4 1-329): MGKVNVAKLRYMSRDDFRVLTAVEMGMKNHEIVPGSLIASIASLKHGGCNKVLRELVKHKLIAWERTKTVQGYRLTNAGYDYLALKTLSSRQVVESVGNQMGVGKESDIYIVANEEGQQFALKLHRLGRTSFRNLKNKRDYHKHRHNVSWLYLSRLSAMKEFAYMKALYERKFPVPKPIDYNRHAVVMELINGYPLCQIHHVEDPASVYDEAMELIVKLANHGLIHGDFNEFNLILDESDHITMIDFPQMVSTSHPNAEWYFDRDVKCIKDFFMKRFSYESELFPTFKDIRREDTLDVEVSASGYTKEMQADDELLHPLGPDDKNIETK

Kd: 393 nM
Structure (SMILES): O=C(Cc1ccc2ccccc2c1)Nc1ccccn1 [compound 9]
